Tests used:
Assay type in all cases: cell-based
Kv10.1 [1] = molecular target: T1, Kv10.1 (Homo sapiens, UniProt O95259); test: whole-cell voltage-clamp of HEK293 cells stably expressing human Kv10.[…] (activator); no effect in HEK-WT
T1 construct: gene KCNH1
T1 sequence (O95259 1-989): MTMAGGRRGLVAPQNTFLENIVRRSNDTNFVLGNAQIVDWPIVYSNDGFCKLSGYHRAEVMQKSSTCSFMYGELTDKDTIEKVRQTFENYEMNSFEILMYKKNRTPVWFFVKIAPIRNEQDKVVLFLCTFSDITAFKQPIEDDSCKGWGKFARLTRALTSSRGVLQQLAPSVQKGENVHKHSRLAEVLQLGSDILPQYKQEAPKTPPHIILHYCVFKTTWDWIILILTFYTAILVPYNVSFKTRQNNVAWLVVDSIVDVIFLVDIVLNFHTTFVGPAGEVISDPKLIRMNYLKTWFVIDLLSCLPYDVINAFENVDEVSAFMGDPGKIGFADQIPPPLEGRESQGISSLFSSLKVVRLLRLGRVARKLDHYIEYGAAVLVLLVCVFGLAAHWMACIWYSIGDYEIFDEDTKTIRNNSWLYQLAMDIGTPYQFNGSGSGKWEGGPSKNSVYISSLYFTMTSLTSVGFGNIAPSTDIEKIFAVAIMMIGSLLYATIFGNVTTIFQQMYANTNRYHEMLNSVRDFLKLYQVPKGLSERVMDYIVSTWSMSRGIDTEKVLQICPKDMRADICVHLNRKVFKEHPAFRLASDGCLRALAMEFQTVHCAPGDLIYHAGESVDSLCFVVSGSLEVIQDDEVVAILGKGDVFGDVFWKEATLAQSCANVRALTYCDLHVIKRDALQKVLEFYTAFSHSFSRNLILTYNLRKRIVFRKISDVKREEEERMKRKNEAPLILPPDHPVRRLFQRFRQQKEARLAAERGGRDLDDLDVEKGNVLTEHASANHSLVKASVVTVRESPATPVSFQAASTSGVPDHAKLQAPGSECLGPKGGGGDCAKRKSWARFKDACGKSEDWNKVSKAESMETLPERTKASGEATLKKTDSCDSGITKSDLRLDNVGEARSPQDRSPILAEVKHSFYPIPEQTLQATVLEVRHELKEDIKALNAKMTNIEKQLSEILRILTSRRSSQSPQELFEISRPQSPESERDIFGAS

Kv10.1 [2] = molecular target: T1, Kv10.1; test: FLIPR membrane potential assay in HEK-Kv10.[…] cells, […]; conditions: read-out: % decrease at 50 μM
Kv10.1 [3] = molecular target: T1, Kv10.1; test: whole-cell voltage-clamp of HEK293 cells stably expressing human Kv10.[…]
Kv10.1 [4] = molecular target: T1, Kv10.1; test: FLIPR membrane potential assay in HEK-Kv10.[…] cells, […]; conditions: read-out: % decrease at 100 μM

Structure (SMILES)	IC50 (Kv10.1 [3]) [µM]	inhibition at 100 µM (Kv10.1 [4]) [%]	other results
c1ccc(-c2nnn[nH]2)c(Nc2cccc3c2CCCC3)c1 [BL, BL-1249]	–	–	EC50 (Kv10.1 [1]): 36.5 µM
COc1ccc(CCN2CCC(Nc3nc4ccccc4n3Cc3ccc(F)cc3)CC2)cc1 [astemizole]	–	–	inhibition at 50 µM (Kv10.1 [2]): 34.8%
CNCCC(Oc1ccc(C(F)(F)F)cc1)c1ccccc1 (stereo not drawn) [fluoxetine]	11.2 ± 6.2	–	–
CN(C)CCC=C1c2ccccc2CCc2ccccc21 [amitriptyline]	–	25.5	–
Clc1ccc(COC(Cn2ccnc2)c2ccc(Cl)cc2Cl)c(Cl)c1 (stereo not drawn) [MN, miconazole nitrate]	23.6 ± 5	–	–
CN(C)C(=O)C(CCN1CCC(O)(c2ccc(Cl)cc2)CC1)(c1ccccc1)c1ccccc1 [loperamide]	–	31.9	–

— PMC10404814, “Fluorescent membrane potential assay for drug screening on Kv10.1 channel: identification of BL-1249 as a channel activator” (Frontiers in Pharmacology, 2023)
